Source: PMC5512002 (Cellular signalling, 2017)

Biological target: T1, GPR55 (Rattus norvegicus, UniProt F1MAK4)
T1 sequence (F1MAK4 1-319): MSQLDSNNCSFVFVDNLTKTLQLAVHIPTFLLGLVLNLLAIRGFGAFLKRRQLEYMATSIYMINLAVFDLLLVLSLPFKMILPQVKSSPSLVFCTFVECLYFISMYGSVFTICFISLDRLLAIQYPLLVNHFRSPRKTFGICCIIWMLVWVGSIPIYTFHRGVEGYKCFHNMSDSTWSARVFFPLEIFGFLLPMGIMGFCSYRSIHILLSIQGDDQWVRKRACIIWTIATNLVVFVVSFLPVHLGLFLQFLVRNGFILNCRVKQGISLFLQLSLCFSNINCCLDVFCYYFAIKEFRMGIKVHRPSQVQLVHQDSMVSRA
Experiment: inhibition of uptake of fluorescent GPR55 ligand T1117 in live C6 cells
Type: cell-based

`COc1ccc(C[C@@H](C)NC[C@H](O)c2cc(O)cc(O)c2)c2ccccc12` [(R,R′)-MNF] gave an IC50 of 0.32 µM.
